Source: PubChem BioAssay (NCI)
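48-hour exposure; five concentrations; linearly interpolated endpoints. Abbreviation: GI50, concentration required for 50% inhibition of growth. TGI: concentration producing complete growth inhibition.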

What was measured:
Experiment in all cases: NCI anticancer screen, dose series, 48 h
U251 CNS = tested on: U251 CNS
A498 renal = tested on: A498 renal
COLO 205 colon = tested on: COLO 205 colon
SN12C renal = tested on: SN12C renal
UACC-257 melanoma = tested on: UACC-257 melanoma
M14 melanoma = tested on: M14 melanoma
MALME-3M melanoma = tested on: MALME-3M melanoma
SNB-19 CNS = tested on: SNB-19 CNS
NCI-H522 lung = tested on: NCI-H522 lung
MDA-MB-231 breast = tested on: MDA-MB-231 breast

Compound | TGI (U251 CNS) [µM] | TGI (A498 renal) [µM] | TGI (COLO 205 colon) [µM] | TGI (SN12C renal) [µM] | TGI (UACC-257 melanoma) [µM] | TGI (M14 melanoma) [µM] | TGI (MALME-3M melanoma) [µM] | TGI (SNB-19 CNS) [µM] | TGI (NCI-H522 lung) [µM] | GI50 (U251 CNS) [µM] | GI50 (A498 renal) [µM] | GI50 (COLO 205 colon) [µM] | GI50 (SN12C renal) [µM] | GI50 (UACC-257 melanoma) [µM] | GI50 (MDA-MB-231 breast) [µM] | TGI (MDA-MB-231 breast) [µM] | GI50 (M14 melanoma) [µM] | GI50 (MALME-3M melanoma) [µM] | GI50 (SNB-19 CNS) [µM] | GI50 (NCI-H522 lung) [µM]
O=S(=O)(N/N=C/c1cccc(Cl)c1Cl)c1ccccc1 | > 100 | > 100 | > 100 | > 100 | > 100 | > 100 | > 100 |  |  |  |  |  |  |  |  |  |  |  |  | 
CC1=C(C(=O)NCc2ccccc2)C(c2ccc([N+](=O)[O-])cc2)C(C(=O)NCc2ccccc2)=C(C)N1 | > 100 | > 100 | 83.5 | > 100 | > 100 | 48.5 | > 100 | > 100 | > 100 |  |  |  |  |  |  |  |  |  |  | 
COc1ccc(C(=O)C(c2ccc(OC)cc2)C2OC(=O)C(Cl)=C2Cl)cc1 (configuration not stated) | > 100 |  |  | > 100 | > 100 | > 100 | > 100 | > 100 | > 100 |  |  |  |  |  |  |  |  |  |  | 
CC(C)C1CC2C(=O)N(c3ccccc3)C(=O)C2c2[nH]c3ccccc3c21 (configuration not stated) | 41.1 | > 100 |  |  | > 100 | > 100 | > 100 |  |  |  |  |  |  |  |  |  |  |  |  | 
Cc1nc(-c2ccccc2)cc2c1c(=O)oc1ccccc12 | > 100 |  | > 100 | > 100 | > 100 | > 100 | > 100 | > 100 | > 100 |  |  |  |  |  |  |  |  |  |  | 
CC(=O)C1C(=O)NC(=O)C1=O (configuration not stated) | > 100 | > 100 | > 100 | > 100 | > 100 | > 100 | > 100 | > 100 | > 100 |  |  |  |  |  |  |  |  |  |  | 
O=C1c2ccccc2NC1(c1ccccc1)c1c(-c2ccccc2)[nH]c2ccccc12 (configuration not stated) | > 100 | > 100 | 35.3 | > 100 | > 100 | > 100 |  | > 100 |  |  |  |  |  |  |  |  |  |  |  | 
O=C(Nc1ccccc1O)c1ccc(CNc2ccnc(C(F)(F)F)c2)cc1 | > 100 | 12.2 | 31.3 | > 100 | > 100 | 38 | 11.6 | 33.9 |  | 4.73 | 2.84 | 14.7 | 4.61 | 8.4 | 9.29 | 50.6 | 3.86 | 1.03 | 10.4 | 
O=C(O)/C(Cl)=C(\Cl)C(=O)NC1C2CC3CC(C2)CC1C3 (configuration not stated) | > 100 | > 100 | > 100 | > 100 | > 100 | > 100 | > 100 | > 100 | > 100 |  |  |  |  |  |  |  |  |  |  | 
COC(=O)Nc1nc2ccc(C(=O)c3ccc(N(C)C4COC4)cc3)cc2[nH]1 | > 100 | > 100 | 1.03 | > 100 | > 100 | > 100 |  | > 100 | 4.34 | 0.397 | 0.413 | 0.285 | 0.561 | > 100 | 0.608 | > 100 | 0.279 |  | 0.435 | 0.337
Cc1cc2cn3c4ccc(O)cc4[nH]c(=O)c3c2cc1C | 1.07 | 1.43 | 0.927 |  | 1.31 |  |  | 1.68 | 0.0697 | 0.026 | 0.0319 | 0.174 |  | 0.0416 | 0.071 | 1.22 |  |  | 0.0358 | 0.0164
NCCN.NCCN.O=C[O-].O=C[O-].[Co+3].[O-][Cl+3]([O-])([O-])[O-] | > 100 | > 100 | > 100 | > 100 | > 100 | > 100 |  |  | > 100 | > 100 | > 100 | > 100 | > 100 | > 100 |  |  | > 100 |  |  | > 100
COc1ccc(Cc2cc3c(cc2OCC(=O)O)OCO3)cc1 |  | > 100 | > 100 | > 100 | > 100 | > 100 | > 100 | > 100 | > 100 |  |  |  |  |  |  |  |  |  |  | 
O=C(c1ccccc1)c1oc2ccc(Br)cc2c1-c1cnn(-c2ccccc2)c1 |  |  | > 100 | > 100 | > 100 | > 100 | > 100 | > 100 | > 100 |  |  |  |  |  |  |  |  |  |  | 
CN(CCc1ccccn1)c1nc(=[N+](C)C)ss1 | > 100 | > 100 | > 100 | > 100 | > 100 | > 100 | > 100 | > 100 | > 100 |  |  |  |  |  |  |  |  |  |  | 
O=C(/C=C/C=C/c1c(C2CC2)nc2ccccc2c1-c1ccc(F)cc1)c1cccs1 | 5.4 | 3.58 |  | > 100 | 6.22 |  |  | > 100 | 9.09 | 1.9 | 1.67 |  | 2.25 | 1.97 | 2.58 | > 100 |  |  | 4.05 | 2.52
O=C(Nc1cccc(Cc2cccc(NC(=O)c3ccccc3)c2)c1)c1ccccc1 | > 100 | > 100 | > 100 | > 100 | > 100 | > 100 | 99.7 | 94.6 | > 100 |  |  |  |  |  |  |  |  |  |  | 
CN(/N=C/c1cccc2cccnc12)c1ccc([N+](=O)[O-])cc1 |  | > 100 | > 100 | > 100 | > 100 | > 100 | > 100 | > 100 |  |  |  |  |  |  |  |  |  |  |  | 
CN(C)CCSc1cccc(-c2cc(-c3cccc(SCCN(C)C)c3)nc(SCCN(C)C)n2)c1 | 3.54 |  |  | 24.7 | 3.02 | 2.99 | 3.38 |  | 2.98 |  |  |  |  |  |  |  |  |  |  | 
Cc1ccc(NC(=O)C(=O)CC(=O)C2CCOC2=O)c(C)c1 (configuration not stated) | > 100 | > 100 | > 100 | > 100 | > 100 | > 100 | > 100 | > 100 | > 100 |  |  |  |  |  |  |  |  |  |  | 
OC(COc1ccc(F)cc1)Cn1cnc2c(Cl)ncnc21 (configuration not stated) | > 100 | > 100 | > 100 | > 100 | > 100 |  | > 100 | > 100 | > 100 | > 100 | > 100 | > 100 | > 100 | 46.8 | 64.7 | > 100 |  | 33.6 | > 100 | > 100
